From patent US12365643B2, “Phenoxy carboxylic acid compounds and medical uses thereof” (QINGDAO RISING BIOTECHNOLOGY CO., LTD, priority 2018, dated 2025)

Columns and labels:
[1] = tested on: RAW264.7 mouse macrophages; assay: Determination of NO generation induced by LPS; type: cell-based; settings: 10 μM, 1 μg/mL LPS, 24 hours, RAW264.7 (FIG. 2)
Procedure: The results are expressed as the multiple of the NO content in the cell culture supernatant of the administration group (10 μM) as compared with that in the cell culture supernatant of the control group (DMSO group), in which compared with the control group, *P<0.05, **P<0.01, ***P<0.001.
NO is a reactive nitrogen species (RNS) and an important gas signal molecule. Macrophages could convert arginine into NO which participated in the body's inflammatory response. Therefore, determination of inhibitory activity of a drug on NO generation was one of the classic methods to evaluate drug's anti-inflammatory ability. RAW264.7 cells at exponential growth phase were inoculated into a 96-well plate at 1×10^4 cells/200 μL. well of medium. After adherence, the medium was discarded, and the cells were subjected to drug treatments. Normal group (serum-free medium), LPS model group (serum-free medium containing 1 μg/mL LPS), LPS+drug group (serum-free medium containing 1 μg/mL LPS, 10 μM gemfibrozil or the compound of the present application) were established, and 3 repeated wells were set for each group. After 24 hours incubation in incubator, cell supernatant of each well was collected and assay was performed according to the instructions of NO determination kit (Nanjing Jiancheng). The absorbance value of each well at wavelength of 540 nm was read and NO content was calculated.

phosphorylated IRS-1 = assay: Phosphorylated IRS-1 level by Western blotting in HepG2; type: cell-based, human; settings: 1 μM, 24 hours, HepG2, Western blotting (FIG. 6C)
From the text: (§1) Carnitine palmitoyltransferase (CPT1α) is a rate-limiting enzyme of fatty acid oxidation. When the body or tissues are lacking in energy, CPT1α catalyzes the entry of fatty acids into mitochondria for […], and at the same time, CPT1α is also involved in the regulation of fatty acid-induced insulin resistance and inflammation. Protein kinase B/glycogen synthase kinase 3β (AKT/GSK3β) signaling pathway and insulin receptor substrate 1 (IRS-1) are key signaling pathways that regulate glucose metabolism in response to insulin signal. Therefore, by determining the effects of compounds on the CPT1α protein level and the AKT, GSK3β and IRS-1 protein phosphorylation levels, it is possible to evaluate the regulatory effects of the compounds on glycolipid metabolism.
(§2) After human liver cancer cells HepG2 were incubated with the compound of the present application or the control drug at 1 μM for 24 hours, the CPT1α protein level and the AKT, GSK3β and IRS-1 phosphorylated protein levels in the cells were determined by Western blotting; after gray-scale scanning by using Image J15.0.1, normalization was performed by using β-tubulin protein level as internal control, and the quantitative analysis results were shown in FIG. 6.

NF-κB = NF-κB luciferase reporter gene transcriptional activity in SW480 cells; type: cell-based, human; settings: 50 μM, 6 hours, SW480 stably transfected (FIG. 3)
Procedure: (§3) NF-κB was the most important inflammatory signal pathway. SW480 human colon cancer cells stably transfected with a luciferase reporter gene driven by NF-κB were used to determine the effects of the compound of the present application and the control drug gemfibrozil on NF-κB transcriptional activity, which comprised the following steps. • (1) Cells stably transfected with NF-κB Luc were cultivated to exponential growth, inoculated at a culture medium concentration of 1×10^5/[…] in a 24-well plate, and cultured for 24 hours, the medium was discarded, and the test compound or gemfibrozil formulated with serum-free medium at 50 μM were added to the 24-well plate and incubation was continued for 6 hours. After washing once with 200 μL of PBS, 100 μL of reporter gene cell lysis buffer was added, the cells were lysed on ice for 10 minutes, and the cell lysate was collected by pipetting. • (2) After centrifugation was performed at 8000 rpm and 4° C. for 10 min, the supernatant was pipetted for fluorescence assay. • (3) The measurement gap time of chemiluminescence analyzer was set to 2 s and the measurement time was set to 10 s. Automatic sample injection was adopted, 50 μL of luciferase assay reagent was added to each well. The reporter gene cell lysis buffer was used as a blank control. • (4) After centrifugation, the supernatant was taken, and the BCA method was used to determine the protein concentration so as to normalize the reporter gene results.

PPARγ = PPARγ mRNA expression by real-time quantitative PCR in HepG2; type: cell-based, human; settings: 1 μM, 6 hours, HepG2 (FIG. 5B)
From the text: (§4) Peroxisome proliferation factor activated receptor (PPAR) is an important nuclear receptor that regulates glycolipid metabolism, including three subtypes: α, β/δ and γ. Peroxisome proliferator-activated receptor γ coactivator 1α (PGC-1α) is its auxiliary transcriptional activator. Acyl-CoA oxidase 1 (ACOX1) is the first rate-limiting enzyme for fatty acid β oxidation. Fatty acid binding protein 1 (FABP1) is highly expressed in liver, and can bind fatty acid, heme and other molecules to reduce their toxicity and damage. Up-regulating the expression level of these genes helps to improve the body's metabolism, and their agonists are an important class of anti-metabolic drugs. After the compound of the present application (1 μM) and the control drug gemfibrozil (1 μM) were incubated with human liver cancer cells HepG2 for 6 hours, real-time fluorescent quantitative PCR method was used to determine the relative expression of mRNA of related genes in the cells.
(§5) The company which synthesized the primers was Suzhou Hongxun Biotechnology Co., Ltd. Tranzol reagent (Tranzol total RNA extraction reagent, TransGen Biotech) was used to extract total RNA from tissues. 5× All-In-One RT MasterMix reverse transcription kit (Abcam, USA) and real-time quantitative PCR Master Mix (Aidlab Biotechnologies Co., Ltd) were used. Bio-Rad CFX Connect™ Real-Time PCR Detection System for qPCR was used, and 2^−ΔΔCT method was used for data analysis. The expression level of mRNA in the normal control group was set to 1, and the relative expression level of mRNA in the administration group was calculated, so as to confirm whether the active compound affected the PPAR pathway, thereby further regulating lipid metabolism.

[2] = tested on: antioxidant response element (ARE); assay: ARE luciferase reporter gene activity in HepG2 cells; type: cell-based, human; settings: 50 μM, HepG2 stably transfected (FIG. 4)
Procedure: as §3
In this experimental example, the luciferase activity in HepG2 human liver cancer cells stably transfected with a luciferase reporter gene driven by antioxidant response element (ARE) was determined to evaluate the regulatory effects of the compound of the present application and gemfibrozil on the transcriptional activity of transcription factor Nrf2 and the cellular oxidative stress response signals, in which the operation process of the reporter gene assay was the same as that of Experimental Example 2.2.

PGC1α = PGC1α mRNA expression by real-time quantitative PCR in HepG2; type: cell-based, human; settings: 1 μM, 6 hours, HepG2 (FIG. 5C)
From the text: as §4, §5

CPT1α = CPT1α protein level by Western blotting in HepG2; type: cell-based, human; settings: 1 μM, 24 hours, HepG2, Western blotting (FIG. 6A)
From the text: as §1, §2

db/db mice = assay: Diabetes mellitus model (db/db mice); type: in vivo, mouse; settings: intragastric once a day for 28 days, 50 mg/kg (pioglitazone 6 mg/kg)
From the text: Animal model: C57BL/KsJ-leprdb/leprdb diabetic (db/db) mice were widely used as animal models of type 2 diabetes mellitus, in which spontaneous mutations of leptin receptor (Leptin receptor, Lepr) caused extreme obesity, polyphagia, diabetes and polyuria. In this experiment, db/db mice (purchased from the Department of Animals, Health Science Center of Peking University) were selected. In the experiment, 28 db/db mice were used, and the animals with blood glucose of about 7-13 mmol/L were selected. […] Intragastric administration was adopted with an administration volume of 10 ml/kg. […] The administration was performed once a day for 28 consecutive days. From the day of oral administration, the physiological changes of the animals were observed every day. Blood glucose was measured every 3 days (Roche blood glucose meter) and blood glucose difference (Δ) was calculated by the following formula: blood glucose difference (Δ)=the blood glucose of the day—the initial blood glucose (the initial blood glucose difference was zero). For mice in each experimental group, blood was collected, serum was separated, and liver was taken for wet-weight measurement after necropsy; liver tissue was taken and fixed for pathological examination, H.E. staining and oil red O staining (Wuhan Zishan Biotechnology Co., Ltd.) were performed, and mouse liver lesions were observed under light microscope; routine examination of blood was performed by Animal Laboratory Department, Health Science Center of Peking University to measure the following indexes: white blood cell count (WBC), red blood cell count (RBC), lymphocyte count (LY), platelet (PLT) and so on; biochemical laboratory examination of blood was performed by Laboratory Medicine, Third Hospital, Peking University to measure the following indexes: triglycerides (TG), total cholesterol (T-CHO), high-density lipoprotein cholesterol (HDL-C), low-density lipoprotein cholesterol (LDL-C) and so on.

SMILES	NO generation induced by LPS [1]	phosphorylation level of IRS-1 (phosphorylated IRS-1)	activity of NF-κB reporter gene (NF-κB)	ARE reporter gene activity [2]	further results
Cc1cc(OCCC(C)(C)C(=O)O)c(C)cc1Br [BJMU-111, 4-(4-bromo-2,5-dimethylphenoxy)-2,2-dimethylbutanoic acid]	could inhibit NO generation	–	–	–	–
Cc1ccc(C)c(OCCCC(C)(C)C(=O)O)c1Cl [BJMU-209, 5-(2-chloro-3,6-dimethylphenoxy)-2,2-dimethylpentanoic acid]	–	significantly increased the phosphorylation level of IRS-1	could significantly inhibit the activity of NF-κB reporter gene	–	–
Cc1cc(OCCCC(C)(C)C#N)c(C)cc1Br [BJMU-309, 5-(4-bromo-2,5-dimethylphenoxy)-2,2-dimethylpentanenitrile]	–	significantly increased the phosphorylation level of IRS-1	could significantly inhibit the activity of NF-κB reporter gene	–	PPARγ mRNA expression (PPARγ): significantly induced PPARγ mRNA expression
Cc1cc(OCCCC(C)(C)C(=O)O)c(C)c(C)c1Br [BJMU-315, 5-(4-bromo-2,3,5-trimethylphenoxy)-2,2-dimethylpentanoic acid]	–	–	could significantly inhibit the activity of NF-κB reporter gene	–	–
CCC(C)(CCCOc1cc(C)c(Br)cc1C)C(=O)O (centres unmarked) [BJMU-401, 5-(4-bromo-2,5-dimethylphenoxy)-2-ethyl-2-methylpentanoic acid]	could inhibit NO generation	–	–	could significantly activate the ARE reporter gene activity	–
Cc1cc(OCCCCC(C)(C)C(=O)O)c(C)cc1Br [BJMU-403, 6-(4-bromo-2,5-dimethylphenoxy)-2,2-dimethylhexanoic acid]	could inhibit NO generation	–	–	could significantly activate the ARE reporter gene activity	–
COc1cc(Br)c(C)cc1OCCCC(C)(C)C(=O)O [BJMU-412, 5-(4-bromo-2-methoxy-5-methylphenoxy)-2,2-dimethylpentanoic acid]	–	significantly increased the phosphorylation level of IRS-1	–	could significantly activate the ARE reporter gene activity	PGC1α mRNA expression (PGC1α): significantly induced PGC1α mRNA expression
Cc1cc(Br)c(C)c(I)c1OCCCC(C)(C)C(=O)O [BJMU-413, 5-(4-bromo-2-iodo-3,6-dimethylphenoxy)-2,2-dimethylpentanoic acid]	could inhibit NO generation	–	–	–	–
Cc1cc(Br)c(C)c(O)c1OCCCC(C)(C)C(=O)O [BJMU-415, 5-(4-bromo-2-hydroxy-3,6-dimethylphenoxy)-2,2-dimethylpentanoic acid]	could inhibit NO generation	significantly increased the phosphorylation level of IRS-1	could significantly inhibit the activity of NF-κB reporter gene	could significantly activate the ARE reporter gene activity	PGC1α mRNA expression (PGC1α): significantly induced PGC1α mRNA expression; CPT1α protein level (CPT1α): significantly increased CPT1α protein level; PPARγ mRNA expression (PPARγ): significantly induced PPARγ mRNA expression
Cc1cc(OCCCC(C)(C)C(=O)O)c(C)c(O)c1Br [BJMU-416, 5-(4-bromo-3-hydroxy-2,5-dimethylphenoxy)-2,2-dimethylpentanoic acid]	–	significantly increased the phosphorylation level of IRS-1	–	could significantly activate the ARE reporter gene activity	–
CCc1ccc(CCOc2ccc(CC3SC(=O)NC3=O)cc2)nc1 (centres unmarked) [Pioglitazone, pioglitazone]	–	–	–	–	AHDL (high density lipoprotein) (db/db mice): 1.65 ± 0.29 mmol/L; ALDL (low density lipoprotein) (db/db mice): 0.38 ± 0.03 mmol/L; ALT (db/db mice): 225.43 ± 79.31 U/L; AST (db/db mice): 212.79 ± 91.2 U/L; CHOL (total cholesterol) (db/db mice): 3.45 ± 0.26 mmol/L; CK (db/db mice): 1482.86 ± 707.74 U/L; CREA (db/db mice): 12 ± 3.91 µmol/L; TGL (triglycerides) (db/db mice): 2.17 ± 0.61 mmol/L
